The experiment has as its target T1, Cystine/glutamate transporter (Homo sapiens) (UniProt Q9UPY5).
T1 sequence (whole entry): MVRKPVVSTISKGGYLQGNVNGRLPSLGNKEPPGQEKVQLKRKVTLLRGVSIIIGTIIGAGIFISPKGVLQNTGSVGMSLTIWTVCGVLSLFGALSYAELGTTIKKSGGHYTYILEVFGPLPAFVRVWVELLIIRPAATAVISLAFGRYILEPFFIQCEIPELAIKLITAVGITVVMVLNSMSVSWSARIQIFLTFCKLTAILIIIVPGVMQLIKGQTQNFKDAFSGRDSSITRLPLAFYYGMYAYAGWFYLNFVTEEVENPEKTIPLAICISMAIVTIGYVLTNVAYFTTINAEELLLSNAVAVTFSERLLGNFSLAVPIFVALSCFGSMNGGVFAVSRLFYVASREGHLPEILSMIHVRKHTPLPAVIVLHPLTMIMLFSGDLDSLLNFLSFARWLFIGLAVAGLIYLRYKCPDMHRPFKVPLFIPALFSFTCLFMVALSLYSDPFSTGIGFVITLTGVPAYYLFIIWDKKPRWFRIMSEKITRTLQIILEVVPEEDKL
The experiment is described as follows: Inhibition of system xc-transporter-mediated [3H]-L-glutamate uptake in human SNB19 cells at 500 uM after 5 mins by liquid scintillation counting analysis relative to control. The conditions noted are these: SNB-19. It counts as cell-based.

The source of these data is ChEMBL document CHEMBL2434912, “Microwave accelerated synthesis of isoxazole hydrazide inhibitors of the system xc- transporter: Initial homology model” (Bioorg Med Chem Lett, 2013).

The term inhibition denotes the change of the read-out against control, counted positive when it falls. Low values mean a weak effect, high ones a strong effect.

On to `C/C(=N\NC(=O)c1cc(C(F)(F)F)cc(C(F)(F)F)c1)c1c(C(=O)O)noc1C`, for which the inhibition amounted to 90%.

Compound `C/C(=N\NC(=O)c1ccccc1)c1c(C(=O)O)noc1C` had an inhibition of 83%.

In turn, `C/C(=N\NC(=O)c1ccccc1O)c1c(C(=O)O)noc1C` came in with an inhibition of 52%.

With `COc1ccc(C(=O)N/N=C(\C)c2c(C(=O)O)noc2C)cc1`, the inhibition is 68%.

`C/C(=N\NC(=O)c1ccc(F)cc1F)c1c(C(=O)O)noc1C` had an inhibition of 58%.

`C/C(=N\NC(=O)c1cccc2ccccc12)c1c(C(=O)O)noc1C`: the inhibition stood at 68%.
